Key:
[1] = tested on: β-catenin in osteoblasts; assay: β-catenin immunostaining of trabecular bone in mice, 28 days PTH; assay type: in vivo, mouse; conditions: for percentage of β-catenin positive osteoblasts: 28 days
Source text: (§1) Immunohistochemical staining of representative sections with antibody against β-catenin at 10× objective and 40× objective counterstained with hematoxylin from either primary spongliosa subjacent to the epiphyseal growth plates or Spongiosa subjacent to diaphyseal hematopoietic bone marrow of different time points after PTH single injection in rats. […] Each value is the mean±SEM of determinations in three independent slides of each animal and three animals of each group. Panels B and C show graphs of the expression of MPK1 mRNA and the ratio of RANKL/OPG as quantified by real-time PCR in cavaria tissue from the same animals. Panel D—Immunohistochemical β-catenin staining of representative sections were counterstained with hematoxylin from metaphyseal area of distal femurs of mice at six weeks of age. (i) vehicle control daily injection for 28 days; (ii) hPTH (1-34) 100 ng/g. b.w daily injection for 28 days; (iii) vehicle control continuous infusion with an osmotic pump; and (iv) hPTH (1-34) continuous infusion at 500 ng/h with an osmotic pump. Panel D is a graph showing the numbers of β-catenin-positive osteoblasts as a percent of total osteoblasts per field that were determined. Each value is the mean±SEM of determinations in three independent slides of each animal and three animals of each group.
(§2) The role of β-catenin in PTH-induced bone formation was then examined. PTH stimulates bone formation when injected daily, i.e. intermittent injection, but causes severe bone loss when infusion continuously. Mice were injected either daily or continuously by infusion with an osmotic pump for 28 days. […] Similar results were obtained in double labeling.

[2] = tested on: TGF-β-induced transcription activity; assay: Smad binding response luciferase reporter (SBE-luc) in 293 cells; assay type: cell-based; conditions: TGF-β 2 ng/ml, 50 nM
Experimental: A Smad binding response luciferase reporter (SBE-luc) was transfected into 293 cells. TGF-β (2 ng/ml) was added in combination with different doses of PTH (1-34) or cPTH (39-84). Twenty-four hours after transfection, the cells were lysed and the luciferase signal was detected. Luciferase values shown in the figures are representative of transfection experiments performed in triplicate in at least three independent experiments. The relative increased fold of the luciferase activity stimulated by TGF-β in each cell line was calculated.
A Smad binding response luciferase reporter (SBE-luc) was introduced into the multi-cloning site of pcDNA3 (Invitrogen), and the resulting vector was transfected into 293 cells using Lipofectamine Plus reagent (Invitrogen, Cat. No. 10964-013). TGF-β (2 ng/ml) was added in combination with different doses of PTH (1-34) (50 nM) or cPTH (39-84) (50 nM). […] Forty-two hours after transfection, the cells were lysed, and the luciferase signal was detected using the Dual Luciferase assay kit (Promega) according to the manufacturer's instructions.
Luciferase values shown in the figures are representative of transfection experiments performed in triplicate in at least three independent experiments. The relative increased fold of the luciferase activity stimulated by TGF-β in each cell line was calculated.

[3] = tested on: β-catenin in osteoblasts; assay: β-catenin immunostaining of femur and tibia after single PTH injection in rats; assay type: in vivo, rat
Source text: as §1
β-Catenin, activated by either Wnt or TGF signaling, stimulates proliferation of osteoprogenitors and bone formation. […] Therefore, the dynamics of β-catenin levels were determined at various time points after a single dose injection of PTH (1-34) in seven-month-old rats. Sections of femur and tibia were immunostained for HE, trichrome, and β-catenin. The first signs of β-catenin expression in osteoblasts appeared at 2 hours after PTH injection, reached a peak at 8 hours, and decreased at 24 hours. […] Specifically, 99.76% of osteoblasts at primary spongliosa subjacent to the epiphyseal growth plates were β-catenin positive, and 89.91% at spongiosa subjacent to diaphyseal hematopoietic bone marrow were β-catenin positive (FIG. 7A).
To further examine whether LRP5/6 mediates PTH-elevated β-catenin levels in vivo, trabecular bone sections were immunostained with the antibody against phosphorylated PPPSP motif. Formalin-fixed tissue sections of 5 μm thickness were deparaffinized in xylene and rehydrated in graded alcohols. Antigen retrieval was achieved by incubating tissue sections in boiling 10 mmol/L citrate buffer (pH 6.0) for 5 minutes in a microwave oven. All sections were then incubated with hydrogen peroxide for 5 minutes. Subsequently, sections were incubated with the primary antibodies against β-catenin or LRP6 1490 for 1 hour at room temperature. After rinsing the primary antibody in T-PBS, antibody detection was accomplished using the Super Sensitive biotin-streptavidin horseradish peroxidase detection kit (Biogenex, San Ramon, Calif.). The diaminobenzidine tetrachloride Super Sensitive substrate kit (Biogenex, San Ramon, Calif.) was used to visualize the antibody-antigen complex. The sections were then counterstained with hematoxylin. Appropriate negative controls, consisting of tissue sections of each case processed without the addition of primary antibody, were prepared along with positive multitissue control sections. Only those cases with greater than 10% immunohistochemical stains were considered as positive. Assessment of the immunohistochemical staining was performed independently by two pathologists. […]

[4] = tested on: Axin; assay: Axin protein levels; assay type: cell-based; conditions: cells overexpressing LRP6
Source text: Binding of Axin to phosphorylated LRP6 leads to rapid degradation. Then inhibition of Axin/LRP6 binding should […] degradation of Axin. Indeed, Axin degradation is reduced by both inhibitors (data not shown). […] PKA and PKC also were examined to determine whether they regulate PTH-induced PTH1R/LRP6 complex formation. […] Apparently, the receptor complex formation is independent of activation of PKA and PKC. Instead, it seems that activation of G protein-mediated PKA and PKC signaling is in parallel with the recruitment of LRP5/6 in PTH signaling. PKA and PKC activity is required for LRP5/6 phosphorylation and Axin/LRP6 binding.
Wnts induce binding of Axin to phosphorylated LRP6, and the membrane-bound Axin undergoes rapid protein dephosphorylation and degradation, which eventually leads to β-catenin stabilization Willert et al., 1999; Yamamoto et al., 1999).

[5] = tested on: Wnt responsive luciferase reporter (TCF4-Luc); assay: TCF4-Luc luciferase reporter assay in UMR 106 cells; assay type: cell-based
[6] = tested on: LRP6/Axin binding; assay: Axin-LRP6 binding immunoprecipitation assay; assay type: cell-based; conditions: HEK 293 cells cotransfected with LRP6, Axin and GSK3β; ligand for 1 hour
[7] = Bone formation in mice, daily injection or continuous infusion for 28 days; assay type: in vivo, mouse
Source text: as §1, §2

[8] = biological target: T1, PTH1R-TβRII interaction (Homo sapiens, UniProt P37173+Q03431); assay: YFP protein-fragment complementation assay, TβRII-YFP1 and PTH1R-YFP2; assay type: cell-based; conditions: both constructs expressed; plasma membrane
T1 construct: expressed in transfected cells
Source text: A yellow fluorescent protein (YFP)-based protein-fragment complementation assay (PCA) was employed (Remy et al., 2004). YFP1 fragment was fused into the C-terminal of TβRII. YFP2 fragment was fused into the C-terminal of PTH1R. The PCA strategy was to facilitate visualization of the PTH1R-TβRII interaction through reconstituted YFP in living cells when the interaction brings the complementary fragments of the YFP into close proximity.
The PTH^TMR was then employed in the PCA experiment. […] Almost all the reconstituted YFP associated with PTH^TMR. The observation was further confirmed by the immunostaining of TβRII and PTH1R in the PTH^TMR-treated cells. TβRII, PTH1R, and PTH ligand predominantly colocalize into the same cytoplasmic vesicles (data not shown).

[9] = tested on: TGFβ/Smad signaling; assay: TGFβ/Smad signaling after PTH pretreatment; assay type: cell-based; conditions: C2C12 cells; TGFβ stimulation
Experimental: Panel B is a graph showing the decrease in activity from the SBE-luciferase reporter in the presence of PTH and PTH1R.
It has been reported that TGFβ-induced endocytosis of TGFβ/TβRII is mediated by Sara endosome. The response of TβRII to PTH was analyzed to determine whether it is the same as to TGFβ. […] The observation was confirmed by TGFβ-induced interaction between Smad2 and Smad4.

[10] = rats, 8 hours after single injection of PTH (1-34)
[11] = seven-month-old rats, single dose injection of PTH (1-34)

T1 sequence (Q03431 27-593): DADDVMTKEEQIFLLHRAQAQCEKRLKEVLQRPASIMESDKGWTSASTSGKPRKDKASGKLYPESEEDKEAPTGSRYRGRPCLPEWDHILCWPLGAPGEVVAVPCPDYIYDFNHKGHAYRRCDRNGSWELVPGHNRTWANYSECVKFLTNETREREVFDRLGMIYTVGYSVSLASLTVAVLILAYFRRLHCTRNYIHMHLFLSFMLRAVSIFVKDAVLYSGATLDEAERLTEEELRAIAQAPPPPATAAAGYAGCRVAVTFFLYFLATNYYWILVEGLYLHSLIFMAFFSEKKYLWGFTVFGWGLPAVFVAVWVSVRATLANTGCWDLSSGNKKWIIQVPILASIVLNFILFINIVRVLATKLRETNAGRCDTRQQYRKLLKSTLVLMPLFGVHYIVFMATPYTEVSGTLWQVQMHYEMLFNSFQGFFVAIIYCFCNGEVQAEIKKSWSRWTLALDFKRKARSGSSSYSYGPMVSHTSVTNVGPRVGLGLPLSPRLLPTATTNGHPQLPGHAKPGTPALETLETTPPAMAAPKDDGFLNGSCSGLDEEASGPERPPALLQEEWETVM
T1 sequence (P37173 23-567): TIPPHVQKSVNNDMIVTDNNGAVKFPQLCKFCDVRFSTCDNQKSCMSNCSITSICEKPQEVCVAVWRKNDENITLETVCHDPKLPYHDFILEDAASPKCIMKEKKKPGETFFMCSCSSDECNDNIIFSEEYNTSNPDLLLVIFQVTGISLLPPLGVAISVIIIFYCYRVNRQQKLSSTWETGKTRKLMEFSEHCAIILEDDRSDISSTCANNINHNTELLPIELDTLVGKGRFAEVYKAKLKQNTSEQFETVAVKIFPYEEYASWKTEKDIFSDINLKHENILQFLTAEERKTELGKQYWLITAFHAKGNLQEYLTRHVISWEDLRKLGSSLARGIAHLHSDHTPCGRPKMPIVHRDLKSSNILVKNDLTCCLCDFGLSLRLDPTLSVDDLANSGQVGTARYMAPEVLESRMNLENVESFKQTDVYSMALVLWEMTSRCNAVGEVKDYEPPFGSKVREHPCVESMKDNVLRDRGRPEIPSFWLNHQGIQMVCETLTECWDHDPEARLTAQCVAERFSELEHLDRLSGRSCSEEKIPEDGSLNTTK

PTH (1-34): N-terminal fragment of PTH, amino acids 1-34
percentage of β-catenin positive osteoblasts ([1]; PTH continuous infusion): 23.54% | β-catenin in osteoblasts (immunostaining) ([1]; PTH continuous infusion, in comparison with control): reduced the level of β-catenin | β-catenin in osteoblasts (immunostaining) ([1]; PTH intermittent injection): significantly increased β-catenin in osteoblasts | percentage of β-catenin positive osteoblasts ([1]; PTH intermittent injection): 96.03% | levels of β-catenin in osteocytes, osteoclasts, and bone marrow cells ([1]; data not shown): remained barely detectable | effect on TGF-β-induced transcription activity (SBE-luc) [2]: inhibited TGF-β-induced transcription activity | β-catenin positive osteoblasts at primary spongliosa subjacent to the epiphyseal growth plates [3, 10]: 99.76% | β-catenin positive osteoblasts at spongiosa subjacent to diaphyseal hematopoietic bone marrow [3, 10]: 89.91% | first signs of β-catenin expression in osteoblasts after PTH injection [3, 11]: 2 h | peak of β-catenin expression in osteoblasts after PTH injection [3, 11]: 8 h | β-catenin expression in osteoblasts at 24 hours ([3]; seven-month-old rats, single dose injection of PTH (1-34), 24 hours): decreased | Axin protein levels [4]: further downregulated Axin protein levels | TCF luciferase activity ([5]; 5×10^−7 M of indicated PTH ligands for 12 hours): significantly elevated | activation of TCF4-Luc reporter ([5]; 10^−7M PTH (1-84), 12 hours): activated the TCF4-Luc reporter | Axin-LRP6 binding [6]: stimulated Axin-LRP6 binding | osteoblast proliferation (BrdU labeling) ([7]; PTH continuous infusion): reduced proliferation | osteoblast proliferation (BrdU labeling) ([7]; PTH daily injection): stimulated | mineralization in the trabecular and cortical bone matrix (von Kossa) ([7]; PTH intermittent injection, data not shown): increased | bone mineral density ([7]; continuous infusion with osmotic pump for 28 days (500 ng/h), data not shown): decreased | bone mineral density ([7]; daily injection for 28 days (100 ng/g b.w), data not shown): significantly increased | osteoblast numbers per square millimeter tissue area (N. Ob/T.Ar) ([7]; primary spongiosa of femur, data not shown): increased

TGF-β1: TGF-β ligand used as stimulus and comparator
YFP fluorescence from TβRII-YFP1 and PTH1R-YFP2 [8]: did not show such an effect | phosphorylation of Smad2 [9]: activated

From patent US8008074B2, “Compositions and methods for improving bone mass through modulation of receptors of PTH and fragments thereof” (The UAB Research Foundation, priority 2006, dated 2011)
